Data reported in ChEMBL document CHEMBL1149680, “Unique spirocyclopiperazinium salt. Part 4: modification of dispirocyclopiperazinium (DSPZ) salts as analgesics” (Bioorg Med Chem Lett, 2007).

How the values were obtained:
Mus musculus [1] = experiment: Analgesic activity in mouse assessed as latency time at 0.04 mmol/kg, sc by hot plate method relative to control; format: functional
Mus musculus [2] = experiment: Analgesic activity against acetic acid-induced writhing in mouse at 0.04 mmol/kg, sc relative to control; format: functional

C(CN1CC[N+]2(CCCC2)CC1)CN1CC[N+]2(CCCC2)CC1.[Br-].[Br-]
Activity (Mus musculus [1]): 64.2% | inhibition in vivo at 40 µmol/kg (Mus musculus [2]): 81%
